For data set [1] the following is noted: dose of methionine equivalent to 50 g per day per cow; cited from earlier work.
The conditions of data set [2]: incubation for six hours in rumen juices; cited from earlier work.
A further data set in a line: in vivo. The settings on record: bovine. On the procedure:
The kinetics of availability of methionine and HMB in the bloodstream were determined for the isopropyl ester of the hydroxy analogue of methionine and compared with the hydroxy analogue of methionine (a compound not according to the present invention).
The procedure of Example 2 was repeated wherein samples of the isopropyl ester of the hydroxy analogue (69 g) and the hydroxy analogue (Alimet™-57 g) were given to four cows.

The subject of a further data set is cows. The experiment in a line: Milk production of dairy cows given ester supplement (Examples 4 and 6). Type of data set: in vivo, cow. Particulars: for Butter Content of Milk / Daily amount of milk / Protein content of Milk: supplement providing 12.5 g of bioavailable methionine per animal per day, 16 cows; for Effect of addition to the diet on milk composition: versus control, Table 5. From the text:
The isopropyl ester of the hydroxy analogue of methionine was given to 16 cows over a period of 8 weeks. Each cow was given daily corn silage and a supplement to cover 100% of requirement and a 115% PDIE (protein digestible in the intestine) requirement.
The supplements were given to the cows according to the following schedule: […]

The conditions of data set [3]: bovine, in vivo. On the procedure: Spot doses of the following amounts of the esters prepared as detailed above, equating to 50 g of methionine equivalent, were given to 2 cows in the manner described in Example 2(b1) above. • methyl ester of HMB: 64.8 g • ethyl ester of HMB: 74.8 g • isopropyl ester of HMB: 80.5 g • n-butyl ester of HMB: 96 g • cyclohexyl ester of HMB: 97.5 g • see butyl ester of HMB: 79 g The concentration of methionine and HMB was measured over a period of 27 hours.
56 g of methyl methioninate and 72 g of n-propyl methioninate (providing an equivalent 50 g of DL-methionine), prepared as detailed above, were supplied to two cows as a spot dose at 7.45 am just before the morning feed.
The ration given to the cows was distributed as two equal meals at 08.00 hours and 16.00 hours comprised 7 kg of hay and 2 kg concentrate.
Samples of blood were taken by jugular vein puncture 09.00, 10.00, 11.00, 13.00 and 15.00 hours on the day where the ester was given to the animal and at 09.00, 12.00 and 15.00 hours on the day before and two days after supply.
The plasma from each sample was isolated from the blood samples by centrifuging the blood at 3000 revs per minute for 10 minutes. The samples were stored in a freezer. The assay for methionine was carried out according to the standard procedure of Moore and Stein.
The results were plotted using the conventional AUC method wherein the areas under the curves are calculated to obtain the bioavailability values for each ester.

Data set [4] can be described thus: Bioavailability of esters of methionine after spot dose to cows (Example 2). It is filed as in vivo, cow. The settings on record: bovine, in vivo. The protocol: The bioavailability of the esters was evaluated.
The samples were stored in a freezer.
The procedure of (b1) was repeated using 72 g of methionine ethyl ester hydrochloride, prepared as detailed above
• cyclohexyl methioninate: 122 g • methionine methyl ester hydrochloride: 73 g • sec butyl methioninate: 72 g

Read-outs that look alike come from different tables or passages of the source.

Take `CSCCC(O)C(=O)O` (centres unmarked) [HMB, 2-hydroxy-4-(methylthio) butanoic acid]: the Bioavailability in data set [1] is given as 3%. Further, the “amount remaining after incubation in rumen juices” value (shortened to “amount remaining after incubation”) in data set [2] is given as 85%. The “Blood plasma HMB concentration” value in “in vivo” (0 min), in “in vivo” (10 min), in “in vivo” (20 min), in the data set “in vivo” (30 min), in “in vivo” (40 min) and in the data set “in vivo” (50 min) was 0.00 mg/100 g of plasma throughout. Moreover, the “Blood plasma HMB concentration” value in the data set “in vivo” (60 min), in the data set “in vivo” (75 min) and in “in vivo” (90 min) was 0.00 mg/100 g of plasma throughout. The molecule further had a concentration at 0 min in the data set “in vivo” (Blood plasma HMB concentration) of 0 ng/g. This molecule also had a concentration at 10 min in the data set “in vivo” (Blood plasma HMB concentration) of 0 ng/g. Further, the concentration at 20 min in “in vivo” (Blood plasma HMB concentration) worked out at 0 ng/g. In the data set “in vivo” (Blood plasma HMB concentration), this molecule showed a concentration at 30 min of 0 ng/g. For the same molecule, the concentration at 40 min in the data set “in vivo” (Blood plasma HMB concentration) was found to be 0 ng/g. The same molecule gave a concentration at 50 min in “in vivo” (Blood plasma HMB concentration) of 0 ng/g. This molecule also displayed a concentration at 60 min in “in vivo” (Blood plasma HMB concentration) of 0 ng/g. For the same molecule, the concentration at 75 min in the data set “in vivo” (Blood plasma HMB concentration) amounted to 0 ng/g. Further, in the data set “in vivo” (Blood plasma HMB concentration), the concentration at 90 min worked out at 0 ng/g.

Regarding `CSCCC(O)C(=O)OC(C)C` (centres unmarked) [Isopropyl ester of HMB, isopropyl ester of the hydroxy analogue of methionine], in the data set with cows, the “Butter Content of Milk” value was 44.3 g/kg; the “Daily amount of milk” value was determined as 32.3 kg/cow; the “Protein content of Milk” value was found to be 30.8 g/kg; the “Effect of addition to the diet on milk composition” value is “higher fat content and higher protein content”. In data set [3], the Bioavailability amounted to 59%, the “appearance of the bioavailability peak in the blood following administration” value is given as “relatively quickly”, the bioavailability of methionine entry was “more than 50%” and the “methionine equivalent provided to the bloodstream by absorption across the rumen wall” value was “at least 50%”. In “in vivo”, the “Blood plasma HMB concentration” value is 0.00 mg/100 g of plasma; the “Speed of providing methionine and HMB to the bloodstream” value is recorded as “much quicker than HMB itself”.

As to `CSCC[C@H](N)C(=O)OC(C)C` [Isopropyl methioninate, isopropyl methioninate], the “Butter Content of Milk” value in the data set on cows is on record as 43.3 g/kg. Also, the “Daily amount of milk” value in the data set on cows is recorded as 32.7 kg/cow. For the same molecule, the “Protein content of Milk” value with cows is recorded as 30.6 g/kg. Besides, in the data set with cows, the “Effect of addition to the diet on milk composition” value is “higher fat content and higher protein content”. Moreover, the “[met] methionine concentration in blood plasma” value is 0.33 mg/100 g of blood plasma in data set [4] (0 h); 3.62 mg/100 g of blood plasma in data set [4] (1 h); 3.21 mg/100 g of blood plasma in data set [4] (2 h); 2.86 mg/100 g of blood plasma in data set [4] (3 h); 2.22 mg/100 g of blood plasma in data set [4] (5 h); 1.93 mg/100 g of blood plasma in data set [4] (7 h). The “[met] methionine concentration in blood plasma” value in data set [4] (28 h) is on record as 0.35 mg/100 g of blood plasma. The molecule further came in with a Bioavailability % in data set [4] (po) of 44%.

For the molecule `COC(=O)C(O)CCSC` (centres unmarked) [Methyl ester of HMB, methyl ester of HMB], the “amount remaining after incubation” value in data set [2] was 1.8%. The Bioavailability in data set [3] was 39%.

In data set [3], `CCC(C)OC(=O)C(O)CCSC` (centres unmarked) [Sec butyl ester of HMB] came in with a Bioavailability of 31%.

Consider `CSCCC(O)C(=O)OC1CCCCC1` (centres unmarked) [cyclohexyl ester of HMB], for which, in data set [3], the Bioavailability is listed as 20%.

In the case of `CCOC(=O)C(O)CCSC` (centres unmarked) [ethyl ester of HMB], the “amount remaining after incubation” value in data set [2] is listed as 3%. In addition, the Bioavailability in data set [3] stood at 35%.

On to `CSCC[C@H](N)C(=O)O` [methionine], for which the “amount remaining after incubation” value in data set [2] was 34%.

For `CCCCOC(=O)C(O)CCSC` (centres unmarked) [n-butyl ester of HMB], the Bioavailability in data set [3] was determined as 17%.

Values taken from patent publication US6872749B2, “Method for supplying bioavailable methionine to a cow” (Adisseo Ireland Limited, priority 1998, dated 2005).
